Source: US20020026053A1, “Novel 3-(substituted) -2- indolinones compounds and use thereof as inhibitors of protein kinase activity” (priority 1997, published 2002)
Read-outs that look alike come from different tables or passages of the source.

Experiments:
PDGF-R = PDGF-R Assay (cellular ELISA, U1242 cells); type: cell-based; design: concentration or dose not given beside the values
Method in brief: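 U1242 cells seeded in 0.5% serum, serum-starved, then exposed to compound for 2 hr at 37°C before 5–10 min ligand stimulation and lysis in HNTG. Lysate captured on receptor-antibody-coated plates; phosphotyrosine detected with polyclonal anti-pTyr, goat anti-rabbit IgG and ABTS/H2O2, A410 (ref 630 nm), versus untreated cells.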

EGFR = biological target: T1, EGFR (Homo sapiens, UniProt P00533); test: Biochemical EGFR Assay; design: concentration or dose not given beside the values
T1 construct: endogenous in cells; host or cells: A431 cells (lysate, captured with SUMO1 anti-EGFR antibody)
Method in brief: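 EGFR from A431 lysate was captured on anti-EGFR-coated wells and preincubated 30 min with compound (diluted 1:10 in TBS) at room temperature. After ATP/MnCl2 phosphorylation for 5 min, the reaction was stopped with EDTA. Phosphotyrosine was detected by ELISA (anti-phosphotyrosine, peroxidase conjugate, ABTS) at 410 nm.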

T1 sequence (P00533 25-1210): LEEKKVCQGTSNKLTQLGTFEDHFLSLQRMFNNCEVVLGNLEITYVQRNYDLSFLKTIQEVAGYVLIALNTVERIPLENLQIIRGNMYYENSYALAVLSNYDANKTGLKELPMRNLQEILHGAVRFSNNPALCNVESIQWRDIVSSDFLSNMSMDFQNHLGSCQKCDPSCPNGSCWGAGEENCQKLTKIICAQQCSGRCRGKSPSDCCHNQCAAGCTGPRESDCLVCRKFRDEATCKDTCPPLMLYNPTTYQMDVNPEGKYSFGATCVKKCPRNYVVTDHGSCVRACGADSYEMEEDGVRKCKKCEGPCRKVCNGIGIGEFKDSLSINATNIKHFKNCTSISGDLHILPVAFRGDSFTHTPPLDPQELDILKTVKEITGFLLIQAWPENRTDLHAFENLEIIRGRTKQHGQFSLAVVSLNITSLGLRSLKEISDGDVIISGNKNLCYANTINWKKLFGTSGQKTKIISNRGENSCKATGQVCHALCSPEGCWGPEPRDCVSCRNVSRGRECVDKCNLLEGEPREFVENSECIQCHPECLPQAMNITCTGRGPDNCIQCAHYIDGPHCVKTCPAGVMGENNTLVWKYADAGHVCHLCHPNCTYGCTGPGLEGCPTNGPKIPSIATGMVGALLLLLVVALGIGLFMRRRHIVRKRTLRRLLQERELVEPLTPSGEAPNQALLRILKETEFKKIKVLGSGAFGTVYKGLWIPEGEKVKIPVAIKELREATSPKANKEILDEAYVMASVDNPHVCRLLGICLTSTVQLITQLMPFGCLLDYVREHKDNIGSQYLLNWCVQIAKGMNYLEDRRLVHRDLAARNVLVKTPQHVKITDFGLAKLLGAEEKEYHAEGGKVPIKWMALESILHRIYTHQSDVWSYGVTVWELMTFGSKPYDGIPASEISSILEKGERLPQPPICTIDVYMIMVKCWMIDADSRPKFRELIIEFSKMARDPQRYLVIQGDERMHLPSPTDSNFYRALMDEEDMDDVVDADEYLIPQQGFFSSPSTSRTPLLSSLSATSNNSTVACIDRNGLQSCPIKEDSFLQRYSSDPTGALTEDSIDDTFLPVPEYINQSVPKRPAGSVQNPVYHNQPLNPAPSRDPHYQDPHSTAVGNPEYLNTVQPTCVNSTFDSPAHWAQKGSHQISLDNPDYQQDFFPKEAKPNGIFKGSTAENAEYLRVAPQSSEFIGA

SMILES | PDGF Kinase % Inhibition (P.119) (PDGF-R) | Biochem EGFR % Inhibition (P.167) (EGFR) | PDGF Kinase % Inhibition (P.119) (PDGF-R; protocol P.119) | Biochem EGFR % Inhibition (P.167) (EGFR; protocol P.167)
Cc1c(Br)cc(Br)c2c1C(=Cc1ccccc1[N+](=O)[O-])C(=O)N2 [10726/H02] | −8.3% | −11.2% | – | –
CCOC(=O)c1[nH]c(C=C2C(=O)Nc3c(Br)cc(Br)c(C)c32)c(C(=O)OC)c1C [10726/H03] | −17.8% | 14.0% | – | –
Cc1cc(C=C2C(=O)Nc3c(Br)cc(Br)c(C)c32)cc(C(C)(C)C)c1O [10726/H04] | 13.2% | 75.5% | – | –
COc1cccc(C=C2C(=O)Nc3ccc(S(=O)(=O)N4CCOCC4)cc32)c1 [10736/F10] | 11.0% | −0.7% | – | –
O=C1Nc2ccc(S(=O)(=O)N3CCOCC3)cc2C1=Cc1ccccc1Cl [10736/F11] | 4.4% | −23.4% | – | –
O=C1Nc2ccc(CCCl)cc2C1=Cc1ccc(Cl)cc1 [10736/G02] | −5.2% | −4.5% | – | –
O=C1Nc2ccc(CCCl)cc2C1=Cc1ccccc1C(F)(F)F [10736/G03] | 1.4% | 23.0% | – | –
Cc1cccc(C=C2C(=O)Nc3ccc(CCCl)cc32)c1 [10736/G04] | −8.3% | −35.0% | – | –
O=C1Nc2ccc(CCCl)cc2C1=Cc1cccc(F)c1 [10736/G07] | – | – | −14.8% | −74.8%
O=C1Nc2ccc(CCCl)cc2C1=Cc1ccccc1F [10736/G08] | – | – | −9.2% | −9.2%
CCc1ccc(C=C2C(=O)Nc3ccc(CCCl)cc32)cc1 [10736/G09] | – | – | −3.5% | 12.4%
COc1cccc(C=C2C(=O)Nc3ccc(CCCl)cc32)c1 [10736/G10] | – | – | −7.4% | −4.5%
O=C1Nc2ccc(CCCl)cc2C1=Cc1ccccc1Cl [10736/G11] | – | – | −1.7% | −6.4%
Cc1c(Br)cc(Br)c2c1C(=Cc1ccc(Cl)cc1)C(=O)N2 [10736/H02] | – | – | −6.1% | −32.0%
Cc1c(Br)cc(Br)c2c1C(=Cc1ccccc1C(F)(F)F)C(=O)N2 [10736/H03] | – | – | 2.2% | −1.4%
Cc1cccc(C=C2C(=O)Nc3c(Br)cc(Br)c(C)c32)c1 [10736/H04] | – | – | −10.9% | −4.3%
Cc1ccc(C=C2C(=O)Nc3c(Br)cc(Br)c(C)c32)cc1 [10736/H05] | – | – | −10.0% | −28.9%
Cc1c(Br)cc(Br)c2c1C(=Cc1cccc(Cl)c1)C(=O)N2 [10736/H06] | – | – | 9.3% | 12.6%
